Test results: ChEMBL document CHEMBL1201862, “PubChem BioAssay data set” (2004)
Activity calls are given as the source filed them.

Legend:
Large T antigen = Large T antigen (Simian virus 40, UniProt P03070); format: functional, Betapolyomavirus macacae;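 also: Confirmatory-stage PubChem screen for compounds that inhibit SV40 T antigen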
[1] = target: FAD-linked sulfhydryl oxidase ALR (Homo sapiens, UniProt P55789); assay: ALR-catalysed DTT oxidation blockers – biochemical, H2O2 detection, luminescence, cherry-pick, dose response (AID 493248)
Chain of FAD-linked sulfhydryl oxidase ALR (P55789 whole entry): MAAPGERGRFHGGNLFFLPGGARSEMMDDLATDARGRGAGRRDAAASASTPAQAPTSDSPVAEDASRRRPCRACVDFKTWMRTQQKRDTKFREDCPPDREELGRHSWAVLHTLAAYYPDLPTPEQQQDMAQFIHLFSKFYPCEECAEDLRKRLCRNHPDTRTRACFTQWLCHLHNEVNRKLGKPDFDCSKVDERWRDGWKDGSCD

[2] = target: T1, Microphthalmia-associated transcription factor (Homo sapiens, UniProt O75030); assay: reducers of TRPM1 reporter luminescence, concentration series – cell-based, SK-MEL-5, cherry-picked, set 3, MITF inhibitor project, dose response (AID 493073); format: functional;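 also: SK-MEL-5 melanoma cells with luciferase driven by the MITF target TRPM1 promoter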
T1 sequence (O75030 whole entry): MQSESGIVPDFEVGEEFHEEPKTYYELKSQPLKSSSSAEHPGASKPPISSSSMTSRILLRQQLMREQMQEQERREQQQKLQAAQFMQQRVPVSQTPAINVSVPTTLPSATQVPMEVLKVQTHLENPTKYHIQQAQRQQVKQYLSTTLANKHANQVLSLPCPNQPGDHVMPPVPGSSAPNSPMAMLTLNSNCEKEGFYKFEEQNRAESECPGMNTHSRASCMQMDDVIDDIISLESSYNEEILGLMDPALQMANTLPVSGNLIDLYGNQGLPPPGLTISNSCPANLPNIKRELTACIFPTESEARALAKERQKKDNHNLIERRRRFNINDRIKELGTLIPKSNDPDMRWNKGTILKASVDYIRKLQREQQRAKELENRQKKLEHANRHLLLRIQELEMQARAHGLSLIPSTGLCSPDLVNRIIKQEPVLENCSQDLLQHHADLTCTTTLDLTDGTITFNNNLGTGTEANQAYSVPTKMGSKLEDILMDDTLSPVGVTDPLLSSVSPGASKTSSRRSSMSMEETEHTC

A-375 [3] = assay: MITF: Counter assay: A375 proliferation Measured in Cell-Based System Using Plate Reader - 2084-03_Inhibitor_Dose_DryPowder_Activity. [Related pubchem assays (depositor defined):AID488944]; format: functional; settings: Homo sapiens
A-375 [4] = assay: proliferation inhibition in MITF-low A375 cells – cell-based, cherry-pick samples, set 2, counter-screen for MITF modulator project, dose response (AID 540335); format: functional; settings: Homo sapiens
[5] = target: Beta-adrenergic receptor kinase 1 (Homo sapiens, UniProt P25098); assay: blockers of aptamer binding to GRK2 – biochemical, flow cytometry beads, FAM-aptamer, powder set 1, dose response (AID 588720)
Chain of Beta-adrenergic receptor kinase 1 (P25098 whole entry): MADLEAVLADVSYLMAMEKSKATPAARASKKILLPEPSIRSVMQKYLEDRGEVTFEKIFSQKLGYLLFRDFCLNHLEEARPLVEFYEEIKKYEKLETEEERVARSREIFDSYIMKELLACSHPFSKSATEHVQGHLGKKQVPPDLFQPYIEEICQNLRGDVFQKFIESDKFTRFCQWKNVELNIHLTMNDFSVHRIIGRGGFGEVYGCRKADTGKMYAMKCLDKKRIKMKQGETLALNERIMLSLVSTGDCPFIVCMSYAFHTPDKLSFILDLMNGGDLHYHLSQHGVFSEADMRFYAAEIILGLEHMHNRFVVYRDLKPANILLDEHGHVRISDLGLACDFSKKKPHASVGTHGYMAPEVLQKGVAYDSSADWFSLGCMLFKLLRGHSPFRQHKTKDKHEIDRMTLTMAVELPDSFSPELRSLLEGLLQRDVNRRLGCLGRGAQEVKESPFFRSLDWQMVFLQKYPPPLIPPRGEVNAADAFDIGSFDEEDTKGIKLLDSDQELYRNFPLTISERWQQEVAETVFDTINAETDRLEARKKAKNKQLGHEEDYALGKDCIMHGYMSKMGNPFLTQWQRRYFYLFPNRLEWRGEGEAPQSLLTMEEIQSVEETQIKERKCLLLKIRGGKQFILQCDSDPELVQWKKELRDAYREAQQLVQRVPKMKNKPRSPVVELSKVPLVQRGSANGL

[6] = target: T2, Tyrosine-protein phosphatase non-receptor type 7 (Homo sapiens, UniProt P35236); format: functional
T2 sequence (P35236 whole entry): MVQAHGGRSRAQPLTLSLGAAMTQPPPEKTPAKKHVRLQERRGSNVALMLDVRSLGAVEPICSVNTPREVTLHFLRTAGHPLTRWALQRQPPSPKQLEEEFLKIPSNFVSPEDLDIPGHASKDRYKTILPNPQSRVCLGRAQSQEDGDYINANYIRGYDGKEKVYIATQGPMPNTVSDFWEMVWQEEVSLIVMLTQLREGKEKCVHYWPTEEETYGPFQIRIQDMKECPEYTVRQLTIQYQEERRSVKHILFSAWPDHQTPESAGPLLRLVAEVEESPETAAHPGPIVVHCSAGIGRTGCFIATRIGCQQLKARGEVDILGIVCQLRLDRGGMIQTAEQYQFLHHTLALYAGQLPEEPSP

[7] = target: Glyceraldehyde-3-phosphate dehydrogenase (Homo sapiens, UniProt P04406)
Chain of Glyceraldehyde-3-phosphate dehydrogenase (P04406 whole entry): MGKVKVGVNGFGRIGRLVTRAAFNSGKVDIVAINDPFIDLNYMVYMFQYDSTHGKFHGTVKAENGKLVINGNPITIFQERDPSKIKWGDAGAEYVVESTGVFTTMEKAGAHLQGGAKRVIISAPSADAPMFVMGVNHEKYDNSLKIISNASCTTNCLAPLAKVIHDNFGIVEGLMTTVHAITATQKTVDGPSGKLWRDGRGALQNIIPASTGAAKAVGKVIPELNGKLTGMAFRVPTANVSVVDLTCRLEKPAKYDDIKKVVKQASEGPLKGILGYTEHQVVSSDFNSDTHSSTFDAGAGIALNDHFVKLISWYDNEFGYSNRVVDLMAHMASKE

[8] = target: T3, Dual specificity protein phosphatase 6 (Rattus norvegicus, UniProt Q64346)
T3 sequence (Q64346 whole entry): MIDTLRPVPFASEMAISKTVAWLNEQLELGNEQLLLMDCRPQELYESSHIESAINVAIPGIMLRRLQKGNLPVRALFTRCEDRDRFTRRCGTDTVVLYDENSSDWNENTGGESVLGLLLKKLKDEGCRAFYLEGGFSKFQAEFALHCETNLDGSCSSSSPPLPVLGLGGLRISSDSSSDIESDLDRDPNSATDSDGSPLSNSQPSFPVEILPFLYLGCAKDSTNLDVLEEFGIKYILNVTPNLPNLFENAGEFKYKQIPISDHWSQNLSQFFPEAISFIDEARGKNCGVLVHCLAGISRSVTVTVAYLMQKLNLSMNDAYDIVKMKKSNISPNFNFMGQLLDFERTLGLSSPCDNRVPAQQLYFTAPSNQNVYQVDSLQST

[9] = target: T3, Dual specificity protein phosphatase 6; format: functional
[10] = target: T4, Short transient receptor potential channel 4 (Mus musculus, UniProt Q9QUQ5); assay: calcium entry via TRPC4 opening agents – cell-based, HEK293 TRPC4/mu-opioid, Fluo-4 calcium, dose response (AID 434937); format: functional
T4 sequence (Q9QUQ5 whole entry): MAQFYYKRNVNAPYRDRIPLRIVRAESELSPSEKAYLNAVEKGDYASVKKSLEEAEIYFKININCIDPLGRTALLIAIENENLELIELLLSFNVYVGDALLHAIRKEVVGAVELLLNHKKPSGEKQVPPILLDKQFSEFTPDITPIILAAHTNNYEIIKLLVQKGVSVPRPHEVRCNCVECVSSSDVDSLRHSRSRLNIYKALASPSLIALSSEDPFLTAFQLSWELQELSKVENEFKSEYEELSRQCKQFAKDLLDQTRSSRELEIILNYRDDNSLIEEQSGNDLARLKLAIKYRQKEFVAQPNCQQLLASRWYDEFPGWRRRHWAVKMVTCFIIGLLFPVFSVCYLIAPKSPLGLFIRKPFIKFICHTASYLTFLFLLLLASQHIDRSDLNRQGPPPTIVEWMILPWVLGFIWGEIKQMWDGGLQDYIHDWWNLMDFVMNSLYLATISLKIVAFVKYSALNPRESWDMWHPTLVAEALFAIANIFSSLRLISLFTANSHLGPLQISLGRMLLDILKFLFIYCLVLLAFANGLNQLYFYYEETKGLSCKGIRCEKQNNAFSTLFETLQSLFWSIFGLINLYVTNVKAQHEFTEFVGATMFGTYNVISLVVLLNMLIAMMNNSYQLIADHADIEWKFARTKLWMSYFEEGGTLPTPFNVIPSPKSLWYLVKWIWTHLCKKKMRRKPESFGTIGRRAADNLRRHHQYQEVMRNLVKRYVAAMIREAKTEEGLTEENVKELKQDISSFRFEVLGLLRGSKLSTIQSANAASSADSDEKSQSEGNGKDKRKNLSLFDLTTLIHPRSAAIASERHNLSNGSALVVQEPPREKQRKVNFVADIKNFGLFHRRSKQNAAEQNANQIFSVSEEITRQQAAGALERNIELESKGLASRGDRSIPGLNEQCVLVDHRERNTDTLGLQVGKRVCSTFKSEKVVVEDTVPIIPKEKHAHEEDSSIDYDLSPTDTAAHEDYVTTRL

[11] = target: Delta-type opioid receptor (Homo sapiens, UniProt P41143); assay: Counterscreen for agonists of heterodimerization of the mu 1 (OPRM1) and delta 1 (OPRD1) opioid receptors: Luminescence-based cell-based high throughput dose response assay to identify agonists of OPRD1 homodimerization. [Related pubchem assays (depositor defined):AID504326, AID504355, AID504692, AID504904, AID504905]; format: functional
Chain of Delta-type opioid receptor (P41143 whole entry): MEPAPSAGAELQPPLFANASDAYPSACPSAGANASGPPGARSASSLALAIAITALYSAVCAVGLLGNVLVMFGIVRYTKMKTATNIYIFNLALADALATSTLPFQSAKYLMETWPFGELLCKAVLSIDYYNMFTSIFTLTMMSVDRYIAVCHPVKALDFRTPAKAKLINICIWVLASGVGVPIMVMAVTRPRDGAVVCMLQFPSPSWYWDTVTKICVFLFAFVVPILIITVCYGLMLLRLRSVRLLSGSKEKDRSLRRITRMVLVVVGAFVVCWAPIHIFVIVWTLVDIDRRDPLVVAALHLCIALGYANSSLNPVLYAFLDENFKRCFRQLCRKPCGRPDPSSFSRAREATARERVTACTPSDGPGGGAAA

Mu-type opioid receptor = Mu-type opioid receptor (Homo sapiens, UniProt P35372); assay: Counterscreen for agonists of heterodimerization of the mu 1 (OPRM1) and delta 1 (OPRD1) opioid receptors: Luminescence-based cell-based high throughput dose response assay to identify agonists of OPRM1 homodimerization.; format: functional;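 also: U2OS cells expressing OPRM1 and beta-arrestin as split beta-galactosidase partners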
Chain of Mu-type opioid receptor (P35372 whole entry): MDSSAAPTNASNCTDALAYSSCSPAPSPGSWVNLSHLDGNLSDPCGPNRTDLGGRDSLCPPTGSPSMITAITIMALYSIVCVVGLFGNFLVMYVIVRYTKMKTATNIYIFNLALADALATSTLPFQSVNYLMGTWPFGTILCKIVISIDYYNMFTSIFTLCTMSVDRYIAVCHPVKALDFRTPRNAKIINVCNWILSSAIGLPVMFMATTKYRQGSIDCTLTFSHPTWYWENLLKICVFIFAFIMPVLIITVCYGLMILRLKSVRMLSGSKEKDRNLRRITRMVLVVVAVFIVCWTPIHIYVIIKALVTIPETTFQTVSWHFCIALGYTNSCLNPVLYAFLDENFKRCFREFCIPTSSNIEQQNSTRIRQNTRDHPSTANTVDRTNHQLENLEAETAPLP

[12] = target: 5-hydroxytryptamine receptor 5A (Homo sapiens, UniProt P47898); assay: Counterscreen for agonists of OPRM1-OPRD1 heterodimerization: luminescence-based cell-based high throughput dose response assay to identify agonists of 5-hydroxytryptamine (serotonin) 5A receptor (HTR5A). [Related pubchem assays (depositor defined):AID504326, AID504355, AID504692, AID504904, AID504905]; format: functional
Chain of 5-hydroxytryptamine receptor 5A (P47898 whole entry): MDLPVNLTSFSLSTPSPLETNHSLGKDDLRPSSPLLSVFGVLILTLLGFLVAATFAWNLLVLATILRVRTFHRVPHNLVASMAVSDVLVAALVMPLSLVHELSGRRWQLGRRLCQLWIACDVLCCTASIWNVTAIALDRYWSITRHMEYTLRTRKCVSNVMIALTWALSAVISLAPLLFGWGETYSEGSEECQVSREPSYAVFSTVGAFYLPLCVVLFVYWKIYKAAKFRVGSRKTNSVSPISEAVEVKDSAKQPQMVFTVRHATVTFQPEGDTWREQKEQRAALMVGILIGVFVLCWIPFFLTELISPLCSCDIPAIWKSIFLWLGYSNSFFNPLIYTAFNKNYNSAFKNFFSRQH

Vero [13] = assay: cells; format: functional, cell-based; settings: Chlorocebus sabaeus
Vero [14] = assay: cells; format: functional; settings: Chlorocebus sabaeus
[15] = reduction of Shn3 3'UTR-driven luciferase in osteoblasts – cell-based, Clone20 osteoblasts, firefly luciferase, cherry-picked, dose response (AID 624132); format: functional;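 also: firefly luciferase luminescence from reporter carrying the Shn3 3'UTR in osteoblasts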
[16] = loss of viability in HepG2 cells – cell-based, CellTiter-Glo, cherry-picked, cytotoxicity control for Shn3 inhibitor project, dose response (AID 624134); format: functional
[17] = non-specific 3'UTR reporter inhibition in Clone20-Shn3RL – cell-based, Renilla luciferase, cherry-picked, counter-screen for Shn3 inhibitor project, dose response (AID 624133); format: functional
Paired box protein Pax-8 = Paired box protein Pax-8 (Homo sapiens, UniProt Q06710); assay: PAX8 transcriptional activity inhibition in RMG-I – RMG-I cells, luciferase, cherry-pick, dose response (AID 687027); format: functional, cell-based;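 also: luciferase reporter driven by Pax8 target thyroperoxidase promoter measured by SteadyGlo luminescence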
Chain of Paired box protein Pax-8 (Q06710 whole entry): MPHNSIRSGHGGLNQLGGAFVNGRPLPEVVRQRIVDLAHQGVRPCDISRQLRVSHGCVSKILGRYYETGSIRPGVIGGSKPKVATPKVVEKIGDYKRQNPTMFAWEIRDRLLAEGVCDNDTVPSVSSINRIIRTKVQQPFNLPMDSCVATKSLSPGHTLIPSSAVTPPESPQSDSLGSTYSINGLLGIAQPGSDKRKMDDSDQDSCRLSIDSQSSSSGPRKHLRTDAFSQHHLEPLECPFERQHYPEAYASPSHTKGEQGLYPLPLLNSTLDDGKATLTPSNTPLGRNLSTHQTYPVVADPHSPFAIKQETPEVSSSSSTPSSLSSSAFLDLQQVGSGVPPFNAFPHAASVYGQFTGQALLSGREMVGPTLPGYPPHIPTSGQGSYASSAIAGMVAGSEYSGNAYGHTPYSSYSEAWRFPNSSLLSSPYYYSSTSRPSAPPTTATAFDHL

Escherichia coli [18] = assay: microbe, parasite or virus in culture
Escherichia coli [19] = assay: microbe, parasite or virus in culture; remark: listed apart in the source
Hexokinase-1 [20] = target: T5, Hexokinase-1 (Homo sapiens, UniProt P19367); assay: hexokinase 1 activity inhibitors, potency – biochemical, set 2, resazurin fluorescence coupled readout, selectivity assay for HKDC1 inhibitor project, SAR follow-up (AID 588356); format: functional
T5 sequence (P19367 whole entry): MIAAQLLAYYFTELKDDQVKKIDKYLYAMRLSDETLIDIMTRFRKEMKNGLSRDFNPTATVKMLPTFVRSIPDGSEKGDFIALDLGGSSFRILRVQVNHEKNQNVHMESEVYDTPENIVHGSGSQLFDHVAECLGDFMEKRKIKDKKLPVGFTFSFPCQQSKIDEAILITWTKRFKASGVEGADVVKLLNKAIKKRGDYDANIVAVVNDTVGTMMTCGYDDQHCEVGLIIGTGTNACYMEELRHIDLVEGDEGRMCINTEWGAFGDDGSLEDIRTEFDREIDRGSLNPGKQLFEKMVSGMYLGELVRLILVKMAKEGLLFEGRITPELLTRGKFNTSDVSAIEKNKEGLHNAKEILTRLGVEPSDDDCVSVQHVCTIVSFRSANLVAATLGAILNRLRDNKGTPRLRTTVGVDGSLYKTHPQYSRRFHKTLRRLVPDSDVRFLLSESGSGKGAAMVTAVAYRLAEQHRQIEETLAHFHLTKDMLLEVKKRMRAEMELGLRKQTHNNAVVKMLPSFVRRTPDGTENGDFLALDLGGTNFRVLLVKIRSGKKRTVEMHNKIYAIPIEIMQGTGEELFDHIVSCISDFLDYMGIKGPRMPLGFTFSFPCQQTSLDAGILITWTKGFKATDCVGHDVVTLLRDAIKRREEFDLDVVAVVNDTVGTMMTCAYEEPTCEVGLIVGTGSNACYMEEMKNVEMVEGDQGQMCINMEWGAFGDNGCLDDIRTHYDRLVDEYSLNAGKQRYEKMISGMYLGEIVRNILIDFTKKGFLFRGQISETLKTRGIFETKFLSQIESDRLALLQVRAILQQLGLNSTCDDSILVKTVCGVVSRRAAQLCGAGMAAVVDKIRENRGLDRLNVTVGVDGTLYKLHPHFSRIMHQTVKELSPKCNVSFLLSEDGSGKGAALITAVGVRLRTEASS

Hexokinase HKDC1 [21] = target: T6, Hexokinase HKDC1 (Homo sapiens, UniProt Q2TB90); assay: analog inhibition of human HKDC1 activity – biochemical, set 2, SAR follow-up (AID 588355); format: functional
T6 sequence (Q2TB90 whole entry): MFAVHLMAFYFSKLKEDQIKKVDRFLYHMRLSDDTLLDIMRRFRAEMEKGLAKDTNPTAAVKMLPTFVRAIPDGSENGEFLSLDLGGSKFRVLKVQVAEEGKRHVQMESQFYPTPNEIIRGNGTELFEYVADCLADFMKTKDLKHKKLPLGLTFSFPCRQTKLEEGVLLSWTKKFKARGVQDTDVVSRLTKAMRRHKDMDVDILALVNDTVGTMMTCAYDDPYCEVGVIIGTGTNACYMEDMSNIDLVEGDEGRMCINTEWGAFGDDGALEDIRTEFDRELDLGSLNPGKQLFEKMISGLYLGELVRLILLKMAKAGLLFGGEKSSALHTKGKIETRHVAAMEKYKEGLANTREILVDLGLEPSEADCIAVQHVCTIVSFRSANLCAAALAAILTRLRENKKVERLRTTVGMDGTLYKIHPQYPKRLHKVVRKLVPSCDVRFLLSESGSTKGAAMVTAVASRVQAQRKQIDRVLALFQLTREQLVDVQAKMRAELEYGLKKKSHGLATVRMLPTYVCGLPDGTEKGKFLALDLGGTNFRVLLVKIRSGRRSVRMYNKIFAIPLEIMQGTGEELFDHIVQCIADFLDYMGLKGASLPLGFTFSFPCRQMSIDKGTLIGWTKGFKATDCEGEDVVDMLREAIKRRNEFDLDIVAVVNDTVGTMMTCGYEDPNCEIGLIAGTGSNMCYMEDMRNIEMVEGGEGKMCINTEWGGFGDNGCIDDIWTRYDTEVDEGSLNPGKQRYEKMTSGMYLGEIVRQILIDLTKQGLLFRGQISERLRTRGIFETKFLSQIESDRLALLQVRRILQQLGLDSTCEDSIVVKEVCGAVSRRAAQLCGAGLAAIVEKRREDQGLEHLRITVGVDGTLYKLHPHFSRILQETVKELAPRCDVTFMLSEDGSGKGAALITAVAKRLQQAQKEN

Hexokinase-1 [22] = target: T5, Hexokinase-1; assay: SAR analysis of small molecule inhibitors of hexokinase domain containing I (HKDC1) in the hexokinase 1 selectivity assay. [Related pubchem assays (depositor defined):AID493160, AID493190]; format: functional
Hexokinase HKDC1 [23] = target: T6, Hexokinase HKDC1; assay: SAR analysis of small molecule inhibitors of hexokinase domain containing I (HKDC1). [Related pubchem assays (depositor defined):AID493160, AID493190]; format: functional

Chain of Large T antigen (P03070 whole entry): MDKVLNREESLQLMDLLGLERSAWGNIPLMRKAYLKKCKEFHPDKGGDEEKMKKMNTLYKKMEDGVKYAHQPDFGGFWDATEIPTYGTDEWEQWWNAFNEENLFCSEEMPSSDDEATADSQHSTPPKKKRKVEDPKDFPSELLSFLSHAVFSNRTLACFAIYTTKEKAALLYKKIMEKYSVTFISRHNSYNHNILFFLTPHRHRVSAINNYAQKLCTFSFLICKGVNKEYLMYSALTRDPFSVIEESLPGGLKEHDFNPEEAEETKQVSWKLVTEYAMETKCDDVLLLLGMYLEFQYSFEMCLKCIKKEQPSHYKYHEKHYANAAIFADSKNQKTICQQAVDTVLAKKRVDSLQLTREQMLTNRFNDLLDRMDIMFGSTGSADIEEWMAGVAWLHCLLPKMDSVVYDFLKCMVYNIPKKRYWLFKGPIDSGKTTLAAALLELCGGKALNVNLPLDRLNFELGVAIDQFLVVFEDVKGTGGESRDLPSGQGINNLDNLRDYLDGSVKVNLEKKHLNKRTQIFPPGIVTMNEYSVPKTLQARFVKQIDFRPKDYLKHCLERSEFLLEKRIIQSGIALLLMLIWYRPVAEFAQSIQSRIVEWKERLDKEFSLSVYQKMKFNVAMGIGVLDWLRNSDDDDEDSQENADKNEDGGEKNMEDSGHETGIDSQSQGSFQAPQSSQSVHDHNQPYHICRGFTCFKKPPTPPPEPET

With `O=C1NC(=O)N(c2ccccc2)C(=O)/C1=C/C=C/c1ccco1` the IC50 (Large T antigen) was 26.5 µM (active), the AC50 [1] was 0.449 µM (active) and the AC50 [2] was 8.29 µM (active). The AC50 (A-375 [3]) was > 35 µM (active) and the AC50 (A-375 [4]) was > 35 µM (active).
With `CCc1ccccc1NC(=O)CCS(=O)(=O)c1ccc(Br)cc1` the EC50 [5] was 3.48 µM (active).
For `CC(C)[C@@H](C(N)=O)n1c(=O)[nH]c(=O)n(-c2ccc(Cl)cc2)c1=O`, the IC50 [6] was > 100 µM (not active), the IC50 [7] was > 100 µM (not active) and the IC50 [8] was > 100 µM (inactive). For the same compound, the IC50 [9] was > 100 µM (inactive).
For `CN(C)C(CN=C(S)Nc1cccc(Cl)c1)c1cccnc1` (stereo unspecified), the EC50 [10] was 0.0133 µM (active), the EC50 [11] was 20.5 µM (inactive) and the EC50 (Mu-type opioid receptor) was 7.49 µM (active). The EC50 [12] was > 92.5 µM (inactive).
For `CC(N)C(=O)NC1C2C(=C(O)OC1(C)C(Cl)Cl)C(=O)CC(O)C2O` (stereo unspecified), the IC50 (Vero [13]) was > 25 µM (active), the CC50 (Vero [14]) was 3.08 µM (active) and the AC50 [15] was 1.85 µM (active). The AC50 [16] was > 70 µM (inactive), the AC50 [17] was 2.03 µM (active) and the AC50 (Paired box protein Pax-8) was 0.546 µM (active). The AC50 (Escherichia coli [18]) was 113 µM (active) and the AC50 (Escherichia coli [19]) was 20.8 µM (active).
In the case of `Cc1ccccc1N1C(=O)c2ccccc2C1Nc1ccc(Br)cc1` (stereo unspecified), the IC50 (Hexokinase-1 [20]) is reported as > 80 µM (inactive) and the IC50 (Hexokinase HKDC1 [21]) is reported as > 80 µM (inactive).
With `N#Cc1ccc(CSc2nnc(NC(=O)c3ccc4ccccc4n3)s2)cc1` the IC50 (Hexokinase-1 [22]) was > 80 µM (inactive) and the IC50 (Hexokinase HKDC1 [23]) was > 80 µM (inactive).
